# From BindingDB's records for PubMed 17827 (1977)
# Several values for one entry are separate records, joined by “and”; a condition that tells them apart may be missing. Identical values can stand only once.
# Biological target: T1, Alpha-1A adrenergic receptor (Rattus norvegicus, UniProt P43140)
# T1 sequence (P43140 whole entry): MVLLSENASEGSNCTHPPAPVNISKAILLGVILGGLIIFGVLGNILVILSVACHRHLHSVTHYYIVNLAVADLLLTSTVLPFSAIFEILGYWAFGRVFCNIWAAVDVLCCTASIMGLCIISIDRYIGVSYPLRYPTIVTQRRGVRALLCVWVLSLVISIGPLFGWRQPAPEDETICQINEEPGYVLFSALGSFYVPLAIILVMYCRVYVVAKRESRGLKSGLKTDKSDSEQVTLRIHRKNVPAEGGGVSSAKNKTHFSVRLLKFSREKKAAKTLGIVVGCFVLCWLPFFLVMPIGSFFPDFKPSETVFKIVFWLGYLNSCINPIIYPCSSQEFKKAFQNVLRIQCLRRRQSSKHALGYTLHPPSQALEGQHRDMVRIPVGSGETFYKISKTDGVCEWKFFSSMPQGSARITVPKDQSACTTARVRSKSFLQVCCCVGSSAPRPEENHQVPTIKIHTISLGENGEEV
row,SMILES,Ki
1,NCCc1ccc(O)cc1,5.9 µM and 23 µM
2,CC(C)NC[C@@H](O)c1ccc(O)c(O)c1,38 µM and > 70 µM
3,CN(C)CCC=C1c2ccccc2CCc2ccccc21,0.53 µM
4,CC[C@@H](CO)NC(=O)[C@@H]1C=C2c3cccc4c3c(cn4C)C[C@H]2N(C)C1,4.7 µM and 1.9 µM
5,CN1C2CCC1CC(OC(c1ccccc1)c1ccccc1)C2 (stereo unspecified),0.42 µM and 0.047 µM
6,"NCC(O)c1ccc(O)cc1 (racemic) [Octopamine,(+/-)]",1.56 µM and 11 µM
7,CNC(=S)NCCCCc1cnc[nH]1 [1-[4-(1H-imidazol-5-yl)butyl]-3-methylthiourea],1.03 µM and 1.9 µM
8,"CN1CC(C(=O)N[C@]2(C)O[C@@]3(O)C4CCCN4C(=O)[C@H](Cc4ccccc4)N3C2=O)CC2c3cccc4[nH]cc(c34)CC21 (stereo partly drawn) [7-Methyl-4,6,6a,7,8,9,10,10a-octahydro-indolo[4,3-fg]quinoline-9-carboxylic acid ((2R,5S,10bS)-5-benzyl-10b-hydroxy-2-methyl-3,6-dioxo-octahydro-oxazolo[3,2-a]pyrrolo[2,1-c]pyrazin-2-yl)-amide]",0.0024 µM and 0.0035 µM
9,"CN1C[C@H](C(=O)N[C@]2(C)O[C@@]3(O)[C@@H]4CCCN4C(=O)[C@H](Cc4ccccc4)N3C2=O)C=C2c3cccc4[nH]cc(c34)C[C@H]21 [12'-hydroxy-2'-methyl-5'alpha-(phenylmethyl)ergotaman-3',6',18-trione]",0.012 µM
10,"N[C@H]1C[C@@H]1c1ccccc1 [(1S,2R)-(+)-2-phenylcyclopropylamine]",0.94 µM and 7 µM
11,"CCN(CC)C(=O)[C@@H]1C=C2c3cccc4[nH]cc(c34)C[C@H]2N(C)C1 [(4R,7R)-N,N-diethyl-6-methyl-6,11-diazatetracyclo[7.6.1.0^{2,7}.0^{12,16}]hexadeca-1(16),2,9,12,14-pentaene-4-carboxamide]",0.22 µM
12,CC(C)C[C@H]1C(=O)N2CCCC2[C@]2(O)O[C@](NC(=O)[C@@H]3C=C4c5cccc6[nH]cc(c56)CC4N(C)C3)(C(C)C)C(=O)N12 (stereo partly drawn) [ALPHA-ERGOCRYPTINE],0.008 µM and 0.009 µM
13,CN1CCc2cccc3c2[C@H]1Cc1ccc(O)c(O)c1-3 [APOKYN],0.95 µM and 2.3 µM
14,CC(C)C[C@H]1C(=O)N2CCC[C@H]2[C@]2(O)O[C@](NC(=O)[C@@H]3C=C4c5cccc6[nH]c(Br)c(c56)C[C@H]4N(C)C3)(C(C)C)C(=O)N12 [Bromocriptine+ (GTP+)],0.009 µM and 0.016 µM
15,COc1cc2c3cc1Oc1cc(ccc1O)C[C@H]1c4c(cc(OC)c(O)c4Oc4ccc(cc4)C[C@@H]3N(C)CC2)CC[N+]1(C)C [CAS_57-94-3],> 60 µM and 6.9 µM
16,CC(CO)NC(=O)C1C=C2c3cccc4[nH]cc(c34)CC2N(C)C1 (stereo unspecified) [CAS_60-79-7],1.4 µM and 1.8 µM

row,SMILES,Ki
1,C[C@@H](N)Cc1ccc(O)cc1 [CAS_103-86-6],5 µM and 39 µM
2,c1ccc2c(c1)OCC(CN1CCN(CC3COc4ccccc4O3)CC1)O2 (stereo unspecified) [CAS_7762-32-5],0.1 µM and 0.019 µM
3,CC(C)C1(NC(=O)C2CC3c4cccc5[nH]cc(c45)CC3N(C)C2)OC2(O)C3CCCN3C(=O)C(Cc3ccccc3)N2C1=O (stereo unspecified) [Dihydroergocristine],0.01 µM and 0.0024 µM
4,CC(C)[C@H]1C(=O)N2CCC[C@H]2[C@]2(O)O[C@](NC(=O)[C@@H]3C=C4c5cccc6[nH]cc(c56)C[C@H]4N(C)C3)(C(C)C)C(=O)N12 [ERGOCORNINE],0.011 µM and 0.01 µM
5,C#CCN(C)Cc1ccccc1 [N-benzyl-N-methylprop-2-yn-1-amine],14 µM and > 70 µM
6,NNc1nncc2ccccc12 [NSC_3637],7.7 µM and 52 µM
7,N=c1nc(N2CCCCC2)cc(N)n1O [NSC_4201],> 60 µM and 29 µM
8,OC(CCN1CCCCC1)(c1ccccc1)C1CCCCC1 (stereo unspecified) [NSC_5572],5 µM and 18 µM
9,ClCCN(Cc1ccccc1)Cc1ccccc1 [NSC_5820],0.27 µM and 0.083 µM
10,CC(C)C[C@H]1C(=O)N2CCC[C@H]2[C@]2(O)O[C@](NC(=O)[C@@H]3C[C@@H]4c5cccc6[nH]cc(c56)C[C@H]4N(C)C3)(C(C)C)C(=O)N12 [NSC_159729],0.007 µM and 0.0024 µM
11,CC(C)C1C(=O)N2CCCC2C2(O)OC(NC(=O)C3CC4c5cccc6[nH]cc(c56)CC4N(C)C3)(C(C)C)C(=O)N12 (stereo unspecified) [NSC_168871],0.009 µM and 0.0037 µM
12,CC(C)[C@@]1(NC(=O)[C@@H]2C=C3c4cccc5[nH]cc(c45)C[C@H]3N(C)C2)O[C@@]2(O)[C@@H]3CCCN3C(=O)[C@H](Cc3ccccc3)N2C1=O [SMR000058447],0.018 µM and 0.0063 µM
13,CCCCCC(C)N (stereo unspecified) [Tuaminoheptane],7.1 µM and 68 µM
14,NCCc1c[nH]c2ccc(O)cc12 [[3H]-5-HT],18 µM and 23 µM
15,C[C@H](N)Cc1ccccc1 [beta-aminopropylbenzene],1.6 µM and 10 µM and 2.2 µM and 12 µM
